Experimental data reported in patent publication US20230014181A1, “CULTURE SYSTEM AND METHODS FOR IMPROVED MODELING OF NEUROLOGICAL CONDITIONS” (Genentech, Inc., priority 2021, published 2023).
Where two headings read alike, the source gives them in different places. Where a SMILES comes first, the peptide text is derived from it. The star is where a group is joined. Cbz = O=C(OCc1ccccc1)*

What was measured:
[1] = tested on: human iPSC neurons, astrocytes and microglia treated with 5 μM sAβ42s; assay: Focused small molecule screen, triple culture (neuron, astrocyte, microglia), rescue from sAβ42s toxicity; type: cell-based; conditions: for percent rescue from sAβ42s toxicity at 12.5 µM / percent rescue from sAβ42s toxicity at 50 µM: Homo sapiens, iPSC
Summary of the method: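 A hit was any compound giving ≥30% rescue of dendrite area (MAP2), synapse count, CUX2 cell count or axon area when dosed against 5 μM sAβ42s toxicity. Testing used iPSC-derived double (neuron/astrocyte) or triple (plus microglia) cultures, at four concentrations of 50, 25, 12.5 and 6.25 μM for double and 50, 12.5, 3.1 and 0.78 μM for triple cultures.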

[2] = tested on: human iPSC neurons and astrocytes treated with 5 μM sAβ42s; assay: Focused small molecule screen, double culture (neuron, astrocyte), rescue from sAβ42s toxicity, high content imaging; type: cell-based; conditions: double culture, 5 μM sAβ42s; for percent rescue from sAβ42s toxicity at 6.25 µM / percent rescue from sAβ42s toxicity at 12.5 µM / percent rescue from sAβ42s toxicity at 25 µM / percent rescue from sAβ42s toxicity at 50 µM: Homo sapiens, iPSC
Method: FIGS. 11A-11D show synapse % rescue versus MAP2% rescue (FIGS. 11A-11B) and beta III tubulin % rescue versus MAP2% rescue (FIGS. 11C-11D), in neurons and astrocytes (FIGS. 11A and 11C) or neurons, astrocytes, and microglia (FIGS. 11B and 11D) treated with 5 μM sAβ42s and small molecules from a focused screen of known neuroprotective agents at multiple concentrations (50 μM, 25 μM, 12.5 μM and 6.25 μM (double culture), 50 μM, 12.5 μM, 3.1 μM and 0.78 μM (triple culture). Small molecules that prevented toxicity in dendrites (MAP2), synapses (Synapsin 1/2), cell count (CUX2), or axons ([…]) at or above 30% were considered hits (red dotted line).
Neurons from both NSC lines were evaluated by immunofluorescence staining. Briefly, cells were fixed with 4% PFA and 4% sucrose at room temperature for 20 minutes using Bravo automation. Fixed cells were then washed 2 times with PBS using Biotek 406 microplate washer (Beckman Coulter), followed by permeabilization and blocking by incubation with a solution containing 1×PBS, 0.1% Triton X-100, 2% donkey serum, and 1% BSA at room temperature for 30 minutes. Blocking solution was removed and cells were incubated with primary antibodies in blocking solution overnight at 4° C. After washing 6 times with PBS on Biotek 406 cell plate washer (Beckman Coulter), cells were then incubated with fluorophore-conjugated secondary antibodies for 1 hour at room temperature in the dark to avoid photobleaching. Cells were then washed 6 more times in with PBS before imaging. Fluorescent images were captured using IN Cell 6000 confocal microscope (GE Healthcare Life Sciences). The image analysis was performed with IN Cell 6000 analysis software.
Prior to experimentation, media volume in wells containing neurons was equalized with liquid handling automation (Bravo) in order to ensure precise control of concentrations. All Aβ42 oligomers, anti-Aβ, small molecules, inflammatory cytokines were prepared at 10× concentration and added to Neuronal Culture Media at an appropriate volume. For the repeated dosing experiments, the media were refreshed 50% at each dosing first, before adding Aβ42 oligomers, and/or anti-Aβ antibody at the specified final concentration.
In double (neuron, astrocyte) and triple (neuron, astrocyte, microglia) cultures, each small molecule listed in Table 1 was tested in the AD model paradigm at up to four concentrations. Molecules that characterized ≥30% rescue in any of the four measurements of dendrites area (MAP2), synapses count (synapsin 1/2), or cell count (CUX2), or axon area (Beta III Tubulin; “BT3”)) were classified as hits (FIGS. 11A-11D, Table 2, and Table 3).

[3] = 50.00 μM compound, read-out: % B3T rescue
[4] = 50.00 μM compound, read-out: % MAP2 rescue
[5] = 50.00 μM compound, read-out: % Synapse rescue
[6] = 25 μM compound, read-out: % B3T rescue
[7] = 25 μM compound, read-out: % Cux2 rescue
[8] = 25 μM compound, read-out: % MAP2 rescue
[9] = 25 μM compound, read-out: % Synapse rescue
[10] = 50 μM compound, read-out: % B3T rescue
[11] = 50 μM compound, read-out: % Cux2 rescue
[12] = 50 μM compound, read-out: % MAP2 rescue
[13] = 50 μM compound, read-out: % Synapse rescue

## CC(C)C[C@@H](C=O)NC(=O)[C@H](CC(C)C)NC(=O)[C@H](CC(C)C)NC(=O)OCc1ccccc1 [MG-132] (Cbz-Leu-Leu-Leu-aldehyde)
[1]; 12.50 μM compound, read-out: % B3T rescue
  percent rescue from sAβ42s toxicity at 12.5 µM: 35%
[1]; 12.50 μM compound, read-out: % MAP2 rescue
  percent rescue from sAβ42s toxicity at 12.5 µM: 18%
[1]; 12.50 μM compound, read-out: % Synapse rescue
  percent rescue from sAβ42s toxicity at 12.5 µM: -7%
[1]; [3]
  percent rescue from sAβ42s toxicity at 50 µM: 46%
[1]; [4]
  percent rescue from sAβ42s toxicity at 50 µM: 25%
[1]; [5]
  percent rescue from sAβ42s toxicity at 50 µM: -11%
[2]; 6.25 μM compound, read-out: % B3T rescue
  percent rescue from sAβ42s toxicity at 6.25 µM: -3%
[2]; 6.25 μM compound, read-out: % Cux2 rescue
  percent rescue from sAβ42s toxicity at 6.25 µM: 80%
[2]; 6.25 μM compound, read-out: % MAP2 rescue
  percent rescue from sAβ42s toxicity at 6.25 µM: 18%
[2]; 6.25 μM compound, read-out: % Synapse rescue
  percent rescue from sAβ42s toxicity at 6.25 µM: -6%
[2]; 12.5 μM compound, read-out: % B3T rescue
  percent rescue from sAβ42s toxicity at 12.5 µM: 7%
[2]; 12.5 μM compound, read-out: % Cux2 rescue
  percent rescue from sAβ42s toxicity at 12.5 µM: 87%
[2]; 12.5 μM compound, read-out: % MAP2 rescue
  percent rescue from sAβ42s toxicity at 12.5 µM: 24%
[2]; 12.5 μM compound, read-out: % Synapse rescue
  percent rescue from sAβ42s toxicity at 12.5 µM: 4%
[2]; [6]
  percent rescue from sAβ42s toxicity at 25 µM: 30%
[2]; [7]
  percent rescue from sAβ42s toxicity at 25 µM: 91%
[2]; [8]
  percent rescue from sAβ42s toxicity at 25 µM: 26%
[2]; [9]
  percent rescue from sAβ42s toxicity at 25 µM: 8%
[2]; [10]
  percent rescue from sAβ42s toxicity at 50 µM: 57%
[2]; [11]
  percent rescue from sAβ42s toxicity at 50 µM: 90%
[2]; [12]
  percent rescue from sAβ42s toxicity at 50 µM: 25%
[2]; [13]
  percent rescue from sAβ42s toxicity at 50 µM: 4%

## COC(=O)C1(C)c2[nH]c3ccccc3c2CCN1C(=O)CCl (centres unmarked) [PDI Inhibitor 16F16]
[1]; 3.13 μM compound
  % B3T rescue: 71%
  % MAP2 rescue: 44%
  % Synapse rescue: 43%
[1]; 12.50 μM compound
  % B3T rescue: 43%
  % MAP2 rescue: −6%
  % Synapse rescue: 8%
[1]; 50.00 μM compound
  % B3T rescue: 42%
  % MAP2 rescue: −5%
  % Synapse rescue: −1%
[2]; 6.25 μM compound
  % B3T rescue: 27%
  % Cux2 rescue: 46%
  % MAP2 rescue: 6%
  % Synapse rescue: 5%
[2]; 12.5 μM compound
  % B3T rescue: 3%
  % Cux2 rescue: 45%
  % MAP2 rescue: 1%
  % Synapse rescue: −1%
[2]; 25 μM compound
  % B3T rescue: −46%
  % Cux2 rescue: 66%
  % MAP2 rescue: −10%
  % Synapse rescue: −8%
[2]; 50 μM compound
  % B3T rescue: −22%
  % Cux2 rescue: 34%
  % MAP2 rescue: −12%
  % Synapse rescue: −13%

## O=c1cc(-c2ccc(O)c(O)c2)oc2cc(O)cc(O)c12 [Luteolin]
[1]; [3]
  percent rescue from sAβ42s toxicity at 50 µM: 91%
[1]; [4]
  percent rescue from sAβ42s toxicity at 50 µM: 73%
[1]; [5]
  percent rescue from sAβ42s toxicity at 50 µM: 75%
[2]; [6]
  percent rescue from sAβ42s toxicity at 25 µM: 29%
[2]; [7]
  percent rescue from sAβ42s toxicity at 25 µM: 12%
[2]; [8]
  percent rescue from sAβ42s toxicity at 25 µM: 26%
[2]; [9]
  percent rescue from sAβ42s toxicity at 25 µM: 13%
[2]; [10]
  percent rescue from sAβ42s toxicity at 50 µM: 66%
[2]; [11]
  percent rescue from sAβ42s toxicity at 50 µM: 19%
[2]; [12]
  percent rescue from sAβ42s toxicity at 50 µM: 55%
[2]; [13]
  percent rescue from sAβ42s toxicity at 50 µM: 37%

## CC1=NN(c2ccc(C(=O)O)cc2)C(=O)/C1=C\c1ccc(-c2cc(C)c(C)cc2[N+](=O)[O-])o1 [C 646]
[1]; 0.78 μM compound
  % B3T rescue: 27%
  % MAP2 rescue: 37%
  % Synapse rescue: 28%
[1]; 12.50 μM compound
  % B3T rescue: 42%
  % MAP2 rescue: 41%
  % Synapse rescue: 38%
[1]; 50.00 μM compound
  % B3T rescue: 53%
  % MAP2 rescue: 37%
  % Synapse rescue: 39%
[2]; 50 μM compound
  % B3T rescue: 49%
  % Cux2 rescue: 25%
  % MAP2 rescue: 54%
  % Synapse rescue: 19%
